The values below come from paper PMC7692329, “Inhibitory Effect of AB-PINACA, Indazole Carboxamide Synthetic Cannabinoid, on Human Major Drug-Metabolizing Enzymes and Transporters” (Pharmaceutics, 2020).

As usually defined, the pKi is the Ki on a negative log10 scale, so that one unit is a factor of ten. The pIC50 is the IC50 on a negative log10 scale, so that one unit is a factor of ten. Low values mean a large IC50, high ones a small IC50. The term kinact denotes the maximal first-order rate at which the target is inactivated.

One data set deals with CYP3A4 (Homo sapiens, UniProt P08684). The experiment in a line: CYP3A4 midazolam 1'-hydroxylase inhibition and inactivation kinetics in ultrapooled human liver microsomes. As to conditions: for pIC50: CYP3A4 midazolam 1'-hydroxylase, ultrapooled human liver microsomes.
Sequence of CYP3A4 (P08684 whole entry): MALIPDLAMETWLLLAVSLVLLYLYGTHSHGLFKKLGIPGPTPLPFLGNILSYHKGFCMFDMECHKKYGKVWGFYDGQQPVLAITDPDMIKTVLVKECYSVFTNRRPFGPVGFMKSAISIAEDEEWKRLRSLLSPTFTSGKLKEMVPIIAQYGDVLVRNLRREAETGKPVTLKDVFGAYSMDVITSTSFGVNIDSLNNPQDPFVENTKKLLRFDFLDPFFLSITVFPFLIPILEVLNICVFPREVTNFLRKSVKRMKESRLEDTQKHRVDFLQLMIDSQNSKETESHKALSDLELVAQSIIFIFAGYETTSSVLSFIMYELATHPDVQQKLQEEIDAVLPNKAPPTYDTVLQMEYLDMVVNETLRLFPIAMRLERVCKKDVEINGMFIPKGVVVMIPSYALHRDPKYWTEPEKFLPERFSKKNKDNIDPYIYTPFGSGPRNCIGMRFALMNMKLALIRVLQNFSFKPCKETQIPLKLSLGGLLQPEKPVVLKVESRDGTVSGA
For another data set, the target named is T1, BCRP (Homo sapiens, UniProt Q9UNQ0).
T1 construct: host or cells: LLC-PK1
T1 sequence (Q9UNQ0 whole entry): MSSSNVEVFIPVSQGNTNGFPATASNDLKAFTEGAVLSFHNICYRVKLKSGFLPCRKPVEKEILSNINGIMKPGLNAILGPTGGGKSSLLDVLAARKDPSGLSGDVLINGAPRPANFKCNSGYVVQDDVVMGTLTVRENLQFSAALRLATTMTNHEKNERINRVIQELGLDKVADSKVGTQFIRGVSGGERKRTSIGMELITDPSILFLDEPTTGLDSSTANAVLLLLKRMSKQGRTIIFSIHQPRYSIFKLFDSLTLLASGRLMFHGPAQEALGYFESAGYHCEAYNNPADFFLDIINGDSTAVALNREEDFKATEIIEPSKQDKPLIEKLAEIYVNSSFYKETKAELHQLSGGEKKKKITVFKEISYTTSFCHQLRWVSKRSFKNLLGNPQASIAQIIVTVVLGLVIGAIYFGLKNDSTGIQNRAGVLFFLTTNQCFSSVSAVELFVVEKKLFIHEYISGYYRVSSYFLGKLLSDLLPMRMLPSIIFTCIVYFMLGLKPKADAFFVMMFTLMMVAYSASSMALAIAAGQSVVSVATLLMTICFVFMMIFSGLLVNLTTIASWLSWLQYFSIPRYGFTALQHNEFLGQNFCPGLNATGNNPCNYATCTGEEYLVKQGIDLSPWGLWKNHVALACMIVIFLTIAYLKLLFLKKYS
The experiment in a line: BCRP-mediated B to A transport of estrone-3-sulfate in LLC-PK1-BCRP cells. Type of data set: in vitro ADME.

The target of a further data set is UGT2B7 (Homo sapiens, UniProt P16662). As to the kind of experiment: UGT2B7 naloxone 3-β-D-glucuronidation inhibition in ultrapooled human liver microsomes.
Sequence of UGT2B7 (P16662 24-529): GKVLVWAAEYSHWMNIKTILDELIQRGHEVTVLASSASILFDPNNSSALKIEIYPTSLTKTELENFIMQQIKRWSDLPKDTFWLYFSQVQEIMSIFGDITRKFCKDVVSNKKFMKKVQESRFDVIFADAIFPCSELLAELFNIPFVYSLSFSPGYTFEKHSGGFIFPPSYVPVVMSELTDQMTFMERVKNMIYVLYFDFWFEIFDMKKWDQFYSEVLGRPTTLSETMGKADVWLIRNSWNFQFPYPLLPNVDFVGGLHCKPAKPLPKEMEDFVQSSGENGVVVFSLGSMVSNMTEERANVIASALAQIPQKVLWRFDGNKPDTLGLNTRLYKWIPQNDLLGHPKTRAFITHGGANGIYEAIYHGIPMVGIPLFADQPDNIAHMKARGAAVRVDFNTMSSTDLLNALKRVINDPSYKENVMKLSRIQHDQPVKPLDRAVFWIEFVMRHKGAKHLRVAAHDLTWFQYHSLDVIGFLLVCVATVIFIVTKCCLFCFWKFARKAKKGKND
The test system of data set [1] is human cannabinoid receptor type 2 (hCB2). The note with it: cited from earlier work.
For a further data set, the target named is T2, OAT3 (Homo sapiens, UniProt Q8TCC7).
T2 construct: host or cells: HEK293
T2 sequence (Q8TCC7 1-542): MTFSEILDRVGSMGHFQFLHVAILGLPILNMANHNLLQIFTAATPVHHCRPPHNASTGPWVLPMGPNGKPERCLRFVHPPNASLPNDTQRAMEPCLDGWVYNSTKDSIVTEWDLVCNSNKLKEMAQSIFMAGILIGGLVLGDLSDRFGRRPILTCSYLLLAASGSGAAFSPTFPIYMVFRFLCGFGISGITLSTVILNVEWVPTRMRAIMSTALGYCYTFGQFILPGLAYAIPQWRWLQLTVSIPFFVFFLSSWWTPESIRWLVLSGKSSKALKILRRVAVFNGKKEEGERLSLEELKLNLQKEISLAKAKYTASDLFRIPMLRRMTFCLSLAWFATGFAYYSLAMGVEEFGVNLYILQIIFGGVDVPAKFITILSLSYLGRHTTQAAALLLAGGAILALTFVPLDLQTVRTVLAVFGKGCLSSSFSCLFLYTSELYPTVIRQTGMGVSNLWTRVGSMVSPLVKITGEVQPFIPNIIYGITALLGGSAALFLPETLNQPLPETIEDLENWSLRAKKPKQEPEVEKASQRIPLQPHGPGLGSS
The experiment in a line: OAT3-mediated estrone-3-sulfate uptake in HEK293-OAT3 cells. Type of data set: in vitro ADME.

For data set [2] the following is noted: child, chewing an AB-PINACA contaminated cigarette; cited from earlier work.
For data set [3] the following is noted: 25 of 58 cases; dose regimen not specified; cited from earlier work.
Setting [4] is: human, liver microsomes, pH 7.4, probe midazolam.

pIC50, pKi: −log10 of the molar value. Entries after “also recorded” stand apart in the source; their conditions may differ.

For `CCCCCn1nc(C(=O)N[C@H](C(N)=O)C(C)C)c2ccccc21` [AB-PINACA, N-[(2S)-1-amino-3-methyl-1-oxobutan-2-yl]-1-pentyl-1H-indazole-3-carboxamide], the pKi on CYP3A4 is 4.75; in data set [1] (read-out: receptor binding affinity to hCB2 (Ki)) it was 9.06; at OAT3, 5.08. For the same compound, the pIC50 against CYP3A4 (IC50 With NADPH Preincubation, 30-min preincubation with NADPH) was 4.61; on CYP3A4 (IC50 Without NADPH Preincubation, without NADPH preincubation) it was 4.18; on BCRP it was less than 4.00; against UGT2B7, less than 4.00; at OAT3, 4.93. Moreover, the IC50 shift at 15 min on CYP3A4 (setting [4]) turned out to be 2.7. For the same compound, the kinact on CYP3A4 (setting [4]) is 0.000674 s⁻¹. For the same compound, on CYP3A4 (midazolam 1'-hydroxylation, human liver microsomes), the “Mode of Inhibition, CYP3A4” value is given as “time-dependent inhibition”. In data set [1], the “fold higher in vitro binding affinity to hCB2 compared with Δ9-THC” value is recorded as 40.9 fold. Also, the “Mode of Inhibition, OAT3” value on OAT3 (estrone-3-sulfate uptake, HEK293-OAT3 cells) is listed as “competitively inhibited; also recorded: competitive inhibition”. In addition, the serum level in data set [2] is on record as 42 ng/mL. Moreover, the “blood (plasma) concentration in suspected impaired driving cases” value in data set [3] was 1.8 to 127 nM.
